In patent US12582683B2, “Prostate neoantigens and their uses” (Jansen Biotech, Inc., priority 2019, dated 2026):

Test system: CD8+ T cells in PBMCs from patients with metastatic castrate-resistant prostate cancer
Assay: Patient PBMC restimulation assay (in vitro immunogenicity of neoantigens)
Type: cell-based, human
Set-up: Maximum frequency of TNFα+IFNγ+CD8+ T cells: unit not given here
Details: for Maximum fold change over: fold change over negative control, highest across the PBMC donors evaluated, 9 mer peptide; for Maximum frequency of TNFα+IFNγ+CD8+ T cells: greatest frequency among all tested PBMC donors, negative control 0.011-0.8
Protocol: In Vitro Immunogenicity Assessment of Neoantigens (“Patient PBMC Restimulation Assay”)
PBMCs from human patients with metastatic castrate-resistant prostate cancer were thawed using media (RPMI 1640 supplemented with Glutamax, 10% HI FBS, and 1× Sodium Pyruvate). Cells were counted and plated in a 96 well round bottom microplate at a concentration of 250,000 viable cells per well. Lyophilized peptides were solubilized in 100% DMSO and diluted in media to 10 μg/mL. Neoantigen peptides were added in equal volume to PBMCs for a final concentration of 5 μg/mL. CEF Peptide Pool “Plus” (Cellular Technologies, Ltd.) was utilized as a positive control and DMSO at the same final concentration as the experimental peptides was utilized as a negative control. Human IL-15 (Peprotech) was added to all wells at final concentration of 10 ng/mL.
Plates were incubated at 37° C. (5% CO2) for a total of 13 days. Media was refreshed every 2 days with IL-15 (10 ng/mL final concentration) and IL-2 (R&D systems, 10 IU/mL final concentration). On day 12, PBMCs were re-stimulated with identical experimental peptides or controls, at same concentration as peptide stimulation on Day 1. After 1-hour incubation, protein Inhibitor Cocktail (eBioscience) was added to every well and plate was incubated overnight.
On day 13, cells were stained for intracellular flow cytometry analysis. The cells were washed with PBS and stained with Live/Dead Fixable Aqua Dead Cell stain (Thermo-Fisher). Following the live/dead stain, cells were blocked using Biotin-Free Fe Receptor Blocker (Accurate Chemical & Scientific Corp). Extracellular cellular flow panel (1 μL/antibody per well in 50 μL) consisted of CD3 PerCP-Cy5.5 (Biolegend), CD4 BV421 (Biolegend), and CD8 APC-Cy7 (Biolegend). After extracellular staining, cells were fixed using Foxp3/Transcription Factor Staining Buffer Set (eBioscience) and stained for intracellular proteins (1:50 dilution) using TNFα FITC (R&D Systems) and IFNγ BV785 (Biolegend). Cells were washed and resuspended in stain buffer and analyzed using a BD Celesta flow cytometer.
Flow cytometry cell staining analysis was completed using FlowJo v10. Cells were gated on live, singlet, CD3+ cells. The CD8+ T cells were analyzed for TNFα/IFNγ expression and the frequency of double positive TNFα/IFNγ CD8+ T cells was recorded. Responses were assessed to be positive when the frequency of double positive TNFα/IFNγ CD8+ T cells due to stimulation with an experimental peptide was increased greater than or equal to 2-fold over the DMSO only negative control for that patient. Peptides were analyzed in 1 to 7 patient samples.
The 9 mer fragments shown in Table 13 were assessed for their ability to activate T cells using the Patient PBMC restimulation assay described in Example 1 using TNFα and IFNγ production by CD8^+ T cells as a readout. Self-antigens shown in Table 15 were also used in the assays. […] PBMCs from ten patients were evaluated.

Row | Molecule | Maximum fold change over | Maximum frequency of TNFα+IFNγ+CD8+ T cells | Immunogenic (patient PBMC restimulation, CD8+ T cells)
1 | NSKMALNSLNSIDDAQLTRIAPPRSHCCFWEVNAP (listed as Homo sapiens) [Neoantigen P35, TMPRSS2-ERG] | 2.67 | 0.064 | 
2 | MAGGVLRRLLCREPDRDGDKGASREETVVPLHIGDPVVLPGIGQCYSALF (listed as Homo sapiens) [Neoantigen P37, TSTD1-F11R] | 3.13 | 1.160 | 
3 | LHPQRETFTPRWSGANYWKLAFPVGAEGTFPAAATQRGVVRPA (listed as Homo sapiens) [Neoantigen P27, FAM126B-ORC2] | 3.43 | 0.430 | 
4 | QMAVIQYSCMGLMVFAM (listed as Homo sapiens) [Neoantigen P50, AR (W742C)] | 5.14 | 0.190 | 
5 | LHPDSGNMVENGCYLRR (listed as Homo sapiens) [Neoantigen P59, FOXA1 (F254V)] | 10.75 | 3.010 | 
6 | VFFKRAAEGFFRMNKLKESSDTNPKPYCMAAPMGLTENNRNRKKSYRETNLKAVSWPLNHT [P77] (peptide, listed as Homo sapiens, AR-V3) VFFKRAAEGFFRMNKLKESSDTNPKPYCMAAPMGLTENNRNRKKSYRETNLKAVSWPLNHT | 3.24 | 0.160 | Yes
